Measured values taken from patent US20220226231A1, “AGRIMONY EXTRACT AS ANTI-POLLUTION AGENT” (PIERRE FABRE DERMO-COSMETIQUE, priority 2019, published 2022).

Test system: reconstructed human epithelium (RHE)
Assay: Anti-pollution activity: MDA production (lipid peroxidation) in ozone-stressed reconstructed human epithelium
Type: cell-based
Conditions: Trolox 1 mg/mL
Source text: The objective of this study is to evaluate the antioxidant, detoxifying and ozone-protective activity of an agrimony extract, following exposure to ozone in a reconstructed human epithelium (RHE) mimicking the effect of pollution on the skin. Lipids playing a role in epidermal barrier function, such as free fatty acids, cholesterol, triglycerides and ceramides, can be impacted under stress conditions with increased oxidative lipid damage. Direct measurements of lipid peroxidation can be carried out by measuring malondialdehyde (MDA) by gas chromatography techniques combined with mass spectrometry. This compound is naturally present in tissues, where it is a manifestation of oxidative stress. It is derived in particular from the action of reactive oxygen derivatives on polyunsaturated fatty acids. Several conditions are realized in this study: • Negative control: non-stressed RHE; • Positive control: ozone-stressed RHE; • Test with an agrimony extract: ozone-stressed RHE is in contact with the extract (n=3), this test is performed with 3 different concentrations (1, 3 and 10 μg/mL); • Test with a reference compound: ozone-stressed RHE is in contact with the reference compound (Trolox). The agrimony extract is solubilized in water/DMSO, (80/20, v/v). The process is based on lipid oxidation from ozonolysis. […] A protection index is calculated from the stress and control conditions. […]

Cc1c(C)c2c(c(C)c1O)CCC(C)(C(=O)O)O2 (centres unmarked) [Trolox, 3,4-Dihydro-6-hydroxy-2,5,7,8-tetramethyl-2H-1-benzopyran-2-carboxylic acid]
PI (%) protection index: 37.6%
PI (%) protection index (listed as trolox): 38%
